Consider four compounds from patent US20260199204A1, “ANTIMICROBIAL COMBINATIONS” (Clariant International Ltd, priority 2022, published 2026).

Assay type in all cases: cell-based
Experiment [1] concerns Escherichia coli (E.c.). Description: Challenge test (European Pharmacopoeia 10th Edition, 5.1.3) in O/W-cream gel. Details: key: An A-criteria is related to an excellent protection of a formulation; B-criteria is needed to show sufficient protection but additional risk eliminating measures related to packaging and raw material quality need to be applied; With an F-criteria for any of the organism tested the whole challenge test is failed and the preservation/protection of the formulation is not sufficient. From the text:
(§1) Following examples show challenge test results that were done according to EUROPEAN PHARMACOPOEIA 10TH EDITION. Chapter 5.1.3. As representative microorganisms the following test germs were used: Pseudomonas aeruginosa (gram-negative organism, short “P.a.”), Staphylococcus aureus (gram-positive organism, short “S.a.”), Escherichia coli (gram negative organism, short “E.c.”), Candida albicans (yeast, short “C.a.”) and Aspergillus brasiliensis (mold, short “A.b.”). The A criteria express the recommended efficacy to be achieved. In justified cases where the A criteria cannot be attained, for example for reasons of an increased risk of adverse reactions, the B criteria must be satisfied. An A-criteria is related to an excellent protection of a formulation, B-criteria is needed to show sufficient protection but additional risk eliminating measures related to packaging and raw material quality need to be applied. With an F-criteria for any of the organism tested the whole challenge test is failed and the preservation/protection of the formulation is not sufficient. As a reference an unpreserved sample of the respective formulation was tested as well. As a test system a difficult to preserve formulation was used: Leave-on: O/W-Cream Gel [table]

In experiment [2] the test system is Pseudomonas aeruginosa (P.a.). The description is as above. Details: key: An A-criteria is related to an excellent protection of a formulation; B-criteria is needed to show sufficient protection but additional risk eliminating measures related to packaging and raw material quality need to be applied; With an F-criteria for any of the organism tested the whole challenge test is failed and the preservation/protection of the formulation is not sufficient. As to conditions: pH 7.
Description: as §1

In experiment [3] the test system is Candida albicans (C.a.). The description is as above. Also noted: key: An A-criteria is related to an excellent protection of a formulation; B-criteria is needed to show sufficient protection but additional risk eliminating measures related to packaging and raw material quality need to be applied; With an F-criteria for any of the organism tested the whole challenge test is failed and the preservation/protection of the formulation is not sufficient. As to conditions: pH 7.
Description: as §1

In experiment [4] the test system is Staphylococcus aureus (S.a.). The description is as above. Details: key: An A-criteria is related to an excellent protection of a formulation; B-criteria is needed to show sufficient protection but additional risk eliminating measures related to packaging and raw material quality need to be applied; With an F-criteria for any of the organism tested the whole challenge test is failed and the preservation/protection of the formulation is not sufficient. As to conditions: pH 7.
Description: as §1

In experiment [5] the test system is Aspergillus brasiliensis (A.b.). The description is as above. Also noted: key: An A-criteria is related to an excellent protection of a formulation; B-criteria is needed to show sufficient protection but additional risk eliminating measures related to packaging and raw material quality need to be applied; With an F-criteria for any of the organism tested the whole challenge test is failed and the preservation/protection of the formulation is not sufficient. As to conditions: pH 7.
Description: as §1

The subject of experiment [6] is all test organisms (P.a., S.a., E.c., C.a., A.b.). Nature of the experiment: Challenge test in O/W-cream gel, overall result. Also noted: key to Challenge test criteria for all test organisms: An A-criteria is related to an excellent protection of a formulation; B-criteria is needed to show sufficient protection but additional risk eliminating measures related to packaging and raw material quality need to be applied; With an F-criteria for any of the organism tested the whole challenge test is failed and the preservation/protection of the formulation is not sufficient. As to conditions: pH 7.
Description: as §1

Experiment [7] has as its system Burkholderia cepacia DSM 7288. Nature of the experiment: MIC agar dilution test, bacteria. As to conditions: Burkholderia cepacia (B) DSM 7288, Caso-Agar, pH 7. In general terms: Agar dilution tests growth on a series of plates holding different concentrations.
The test system of experiment [8] is Candida parapsilosis DSM 5784. Description: MIC agar dilution test, yeast. As to conditions: Lodderomyces parapsilosis, DSM5784; Candida parapsilosis (Y) DSM 5784; Sabouraud-4% Dextrose-Agar, pH 5.6. As to the method: (§2) The antimicrobial properties of Velsan Flex, 4-Hydroxyacetophenone and a combination of both against bacteria, yeast and mold were investigated: For testing the inhibition of bacteria, Velsan Flex, 4-Hydroxyacetophenone or a combination of both was diluted in butylpolyglycol and added in different concentrations to liquid Caso-Agar at 50° C. and was buffered to pH 7 (+/−0.2). For testing the inhibition of yeast and mold, Velsan Flex, 4-Hydroxyacetophenone or a combination of both was diluted in butylpolyglycol and added in different concentrations to liquid Sabouraud-4% Dextrose-Agar at 50° C. and was buffered to pH 5.6 (+/−0.2). Each of the solutions was poured into a petri-dish and inoculated with the same amount of bacteria, yeast or mold respectively. The minimum inhibitory concentration (MIC) is the lowest concentration of the respective composition that inhibits the growth of the respective microorganism where the next lowest dilution fails to inhibit the growth of said microorganism. The experiments were carried out in scientifically fair conditions so that a proper comparison could be made and conclusions drawn.

Experiment [9] relates to Saccharomyces cerevisiae DSM 70449. Description: MIC agar dilution test, yeast. As to conditions: Saccharomyces cerevisiae (Y) DSM 70449, Sabouraud-4% Dextrose-Agar, pH 5.6. As to the method: as §2, with “microorganism.” for “microorganism. The experiments were carried out in scientifically fair conditions so that a proper comparison could be made and conclusions drawn.”
(§3) In a similar experiment as described above the antimicrobial properties of Velsan SC, 4-Hydroxyacetophenone and a combination of both against bacteria, yeast and mold were investigated.

Experiment [10] deals with Candida albicans DSM 1386. Description: MIC agar dilution test, yeast. As to conditions: Candida albicans (Y) DSM 1386, Sabouraud-4% Dextrose-Agar, pH 5.6. As to the method: as §2, with “microorganism.” for “microorganism. The experiments were carried out in scientifically fair conditions so that a proper comparison could be made and conclusions drawn.”
as §3

Experiment [11] concerns Klebsiella pneumoniae DSM 786. Description: MIC agar dilution test, bacteria. As to conditions: Klebsiella pneumoniae (B) DSM 786, Caso-Agar, pH 7. As to the method: as §2, with “microorganism.” for “microorganism. The experiments were carried out in scientifically fair conditions so that a proper comparison could be made and conclusions drawn.”
as §3

Experiment [12] deals with Staphylococcus aureus DSM 799. Description: MIC agar dilution test, bacteria. As to conditions: Staphylococcus aureus (B) DSM 799, Caso-Agar, pH 7. The procedure: as §2, with “microorganism.” for “microorganism. The experiments were carried out in scientifically fair conditions so that a proper comparison could be made and conclusions drawn.”
as §3

The subject of experiment [13] is Aspergillus terreus IMI 45543. Description: MIC agar dilution test, mold. As to conditions: Aspergillus terreus (M) IMI 45543, Sabouraud-4% Dextrose-Agar, pH 5.6. As to the method:
as §2, with “microorganism.” for “microorganism. The experiments were carried out in scientifically fair conditions so that a proper comparison could be made and conclusions drawn.”
as §3

Experiment [14] has as its system Fusarium solani IMI 322444. Nature of the experiment: MIC agar dilution test, mold. As to conditions: Fusarium solani (M) IMI 322444, Sabouraud-4% Dextrose-Agar, pH 5.6. The procedure:
as §2, with “microorganism.” for “microorganism. The experiments were carried out in scientifically fair conditions so that a proper comparison could be made and conclusions drawn.”
as §3

In experiment [15] the test system is Penicillium minioluteum/Penicillium purpurogenum ATCC 52427. Description: MIC agar dilution test, mold. As to conditions: Penicillium minioluteum/Penicillium purpurogenum (M) ATCC 52427, Sabouraud-4% Dextrose-Agar, pH 5.6. The procedure:
as §2, with “microorganism.” for “microorganism. The experiments were carried out in scientifically fair conditions so that a proper comparison could be made and conclusions drawn.”
as §3

The test system of experiment [16] is Aspergillus brasiliensis DSM 1988. Description: MIC agar dilution test, mold. As to conditions: Aspergillus brasiliensis (M) DSM 1988, Sabouraud-4% Dextrose-Agar, pH 5.6. As to the method: as §2, with “microorganism.” for “microorganism. The experiments were carried out in scientifically fair conditions so that a proper comparison could be made and conclusions drawn.”
as §3

In brackets after ≈: the same amount, converted by molar mass. Like-named read-outs stand apart in the source and are kept apart here. Some results are limits rather than exact numbers.

For `CC(=O)c1ccc(O)cc1` [4-Hydroxyacetophenone], the “Challenge test result E.c.” value in experiment [1] (concentration 0.25%, pH 7) is reported as “F”; in experiment [1] (concentration 0.5%, pH 7), “F”; in experiment [1] (concentration 0.5%, pH 7, listed as Hydroxyacetophenone), “fails”. The “Challenge test result P.a.” value in experiment [2] (concentration 0.25%) was “F”; in experiment [2] (concentration 0.5%) it was “A”. Also, the figures for the “Challenge test result C.a.” value in [3] (concentration 0.25%) and in experiment [3] (concentration 0.5%) were “F” and “A”, respectively. Moreover, the “Challenge test result S.a.” value in experiment [4] (concentration 0.25%) is reported as “F”; in experiment [4] (concentration 0.5%) it was “B”. For the same compound, the figures for the “Challenge test result A.b.” value in [5] (concentration 0.25%) and in [5] (concentration 0.5%) were “F” and “A”, respectively. Further, the “Challenge test criteria for all test organisms” value in [6] (0.25% as single preservative (entry 5)) was “F”. Also, the “Ability to preserve the formulation” value in experiment [6] (use level 0.5%, alone (entry 6)) is “not sufficient to preserve the formulation”.

With `CC(=O)c1ccc(O)cc1` [10% Hydroxyacetophenone solution, 4-Hydroxyacetophenone], the MIC in experiment [7] (DSM7288, read-out: MIC) was 4000 µg/mL (≈ 29.4 mM); in experiment [8], > 10000 µg/mL; in experiment [9] (DSM70449, read-out: MIC) it was 8000 µg/mL; in experiment [10] (DSM1386, read-out: MIC), 10000 µg/mL; in experiment [11] (DSM786, read-out: MIC), 8000 µg/mL; in experiment [12] (DSM799, read-out: MIC), > 10000 µg/mL. Moreover, the MIC in experiment [13] (IMI45543, read-out: MIC) was 6000 µg/mL; in [14] (IMI322444, read-out: MIC), 3000 µg/mL; in [15] (Talaromyces minioluteus, ATCC52427, read-out: MIC), 6000 µg/mL; in [16] (DSM1988, read-out: MIC), 8000 µg/mL.

Consider Sorbitan caprylate [Velsan SC], for which the “Challenge test result E.c.” value in experiment [1] (concentration 0.5%, pH 7) was “F”. Moreover, the “Challenge test result P.a.” value in [2] (concentration 0.5%) is reported as “F”. Besides, the “Challenge test result C.a.” value in experiment [3] (concentration 0.5%) is “F”. Further, the “Challenge test result S.a.” value in [4] (concentration 0.5%) was “B”. The “Challenge test result A.b.” value in experiment [5] (concentration 0.5%) was “B”. In experiment [6] (alone, entries 8-11 (0.5%; Velsan CGE 0.5% and 0.25%)), the “Ability to preserve the formulation” value is “not sufficient to preserve the formulation”.

As to “Sorbitan caprylate [90% Velsan SC solution]”, the MIC is given as 6000 ppm in experiment [7]; 3000 ppm in experiment [9]; 1500 ppm in [10]; 2000 ppm in experiment [11]; 750 ppm in [12]; 1500 ppm in [13]. Also, the MIC is 1500 ppm in experiment [14], 1500 ppm in experiment [15] and 4000 ppm in experiment [16].
